The text below walks through data of PMC8302504, “Efficacy of Fenfluramine and Norfenfluramine Enantiomers and Various Antiepileptic Drugs in a Zebrafish Model of Dravet Syndrome” (Neurochemical Research, 2021).

Data set [1] concerns zebrafish scn1Lab−/− mutant larvae. The data set can be described thus: Locomotor activity measurement (behavioral assay) in the zebrafish DS model. In kind it is in vivo, Danio rerio. The note with it: 22 h; for effect on epileptiform (hyper-)locomotor activity: single treatment at MTC, Fig. 2A. On the procedure: (§1) WT and homozygous zebrafish larvae (scn1Lab^−/− mutants) (6 dpf) were individually positioned in single wells of a 96-well plate, and incubated in 100 μL VHC or VHC supplemented with compound or combined compounds for 22 h at 28 °C on a 14/10 h light/dark cycle. Then, the plates were placed immediately in an enclosed tracking device (ZebraBox Viewpoint, France), followed by a 30 min chamber habituation and 10 min recording. Locomotor activity over the total tracking period of 10 min was quantified by ZebraLab software (Software Viewpoint, France) using the lardist parameter (total distance in large movements) and 150 bkg (background) as a threshold, as reported previously by our group. For “small/large movement” and “inact/small movement”, a threshold was used of 6.4 and 3.3, respectively. Data were pooled from three or four independent experiments, with at least five larvae for each treatment and 20–30 larvae for each experimental condition, and expressed as “cm” per 100 s.

The test system is the same in data set [2]. The data set can be described thus: Noninvasive local field potential (LFP) recordings from the optic tectum. In kind it is in vivo, Danio rerio. To be noted: 22 h; for effect on cumulative duration of epileptiform events: Fig. 2B; for effect on frequency of epileptiform events: Fig. 2C. The method, then: (§2) WT and homozygous zebrafish larvae (scn1Lab^−/− mutants) (6 dpf) were treated as described above. After incubation, larvae were immobilized in 2% low-melting-point agarose (Invitrogen) at room temperature (RT) and the epileptiform activities were measured by noninvasive local field potential (LFP) recording from the skin above the optic tectum (midbrain). The single glass electrode filled with artificial cerebrospinal fluid (ACSF) (124 mM NaCl, 2 mM KCl, 2 mM MgSO4, 2 mM CaCl2, 1.25 mM KH2PO4, 26 mM NaHCO3, and 10 mM glucose) was positioned on the skin above the optic tectum. Each recording lasted for 10 min. Epileptiform activity was quantified by using Clampfit 10.2 software (Molecular Devices Corporation, USA60), as reported previously by our group.

Another data set has as its system WT zebrafish larvae. The data set can be described thus: Toxicity evaluation: maximum tolerated concentration (MTC). In kind it is in vivo, Danio rerio. To be noted: WT larvae 6 dpf, 22 h incubation. The method, then:
To evaluate the maximum tolerated concentration (MTC) of the individual compounds, a dozen of WT zebrafish larvae (6 dpf) were individually incubated in single wells of a 96-well plate, and treated with two-fold serial dilutions of the compounds. After 22 h incubation under standard conditions (28 °C, 14/10 light/dark cycle), larvae were individually examined for their touch response, posture, edema, signs of necrosis, morphology, heartbeat rate, and swim bladder condition under the microscope.

The test system of data set [3] is zebrafish scn1Lab−/− mutant model of DS. The experiment in a line: Overall antiepileptic activity in the zebrafish scn1Lab−/− mutant model (locomotor and LFP read-outs together). In kind it is in vivo, Danio rerio. The note with it: 22 h incubation. The method, then: as §1, §2
The target in another data set is dopamine (DA) uptake. Set-up: method as in earlier work. To be noted: 34 (Rothman et al.); read-out: Ki values for uptake inhibition, DA; cited from earlier work.
The test system of another data set is 5-HT2C. Further details: method as in earlier work. To be noted: 34 (Rothman et al.); cited from earlier work.
The subject of a further data set is 5-HT2B. Set-up: method as in earlier work. The note with it: 34 (Rothman et al.); cited from earlier work.
The test system of the next data set is dopamine (DA) release. Further details: method as in earlier work. The note with it: 34 (Rothman et al.); cited from earlier work.
Data set [4] concerns the target norepinephrine (NE) uptake. Set-up: method as in earlier work. To be noted: 34 (Rothman et al.); read-out: Ki values for uptake inhibition, NE; cited from earlier work.
Data set [5] concerns norepinephrine (NE) release. Further details: method as in earlier work. To be noted: 34 (Rothman et al.); cited from earlier work.
A further data set addresses serotonin uptake. Set-up: method as in earlier work. To be noted: 34 (Rothman et al.); read-out: Ki values for uptake inhibition, 5-HT; cited from earlier work.
Data set [6] is described as follows: Compound concentration (uptake) in larval zebrafish heads by LC-MS. In kind it is in vivo, Danio rerio. The note with it: immersion at MTC for 30 min, 4 h and 22 h, Fig. 4. On the procedure:
WT and homozygous zebrafish larvae (scn1Lab^−/− mutants) (6 dpf) were treated as described above. After incubation with compounds, larvae were washed and euthanized by exposure to cold Milli-Q water. Then, the heads of larvae were carefully separated under the microscope, and five heads were transferred collectively into one 1.5 mL Eppendorf tube with acid-washed glass beads (diameter: […], Sigma Aldrich) and 275 µL extraction medium (HPLC grade methanol, Sigma Aldrich). Next, the samples were homogenized by 10 min of ultrasonication (Diagenode Bioruptor Plus, Belgium) at 4 °C. The overall ultrasonication process encompassed 10 cycles of 30 s with pauses of 30 s in-between with high energy input. […]
Quantification was performed through the use of a calibration curve created for each compound separately in blank matrix, which was derived from a pooled set of blank fish heads (n = 40). […] Ranges consisted of at least 5 concentrations, each of which was analyzed in replicate (n = 5). […]
The mean head weight (± S.D.) of a 6 dpf and 7 dpf zebrafish larva was 192 ± 10 µg and 196 ± 13 µg, respectively, as measured by weighing three batches of 50 fresh heads after removing excess water with filter paper. The final uptake was calculated according to the method reported by Copmans et al., and expressed as amount/head weight (µg/g).

Data set [7] deals with 5-HT transporter proteins. Set-up: method as in earlier work. The note with it: 34 (Rothman et al.); read-out: EC50 values for release, 5-HT; cited from earlier work.
Another data set relates to 5-HT2A. Further details: method as in earlier work. To be noted: 34 (Rothman et al.); cited from earlier work.
Where [8] appears, read: VPA single treatment at 250 µM, Fig. 3.

Entries after “also recorded” stand apart in the source; their conditions may differ.

The Ki is the equilibrium dissociation constant of an inhibitor or competing ligand from its target. The EC50 is the midpoint of the concentration-response curve.

Take `C=C(C)[C@@H]1CCC(C)=C[C@H]1c1c(O)cc(CCCCC)cc1O` [CBD, cannabidiol]: in data set [1], the “effect on epileptiform (hyper-)locomotor activity” value is recorded as “failed to rescue; also recorded: not active”. The “effect on epileptiform brain discharges” value in data set [2] (single treatment at MTC) is on record as “failed to rescue; also recorded: not active”. Moreover, the “maximum tolerated concentration (MTC)” value in the data set on WT zebrafish larvae was 6.25 µM.
On to `CC(C)(C)C(O)/C=C/c1ccc2c(c1)OCO2` (stereo not shown) [STP, stiripentol], for which, in data set [1], the “effect on epileptiform (hyper-)locomotor activity” value is “failed to rescue; also recorded: not active”. Besides, the “effect on epileptiform brain discharges” value in [2] (single treatment at MTC) is reported as “failed to rescue; also recorded: not active”. Besides, the “maximum tolerated concentration (MTC)” value in the data set on WT zebrafish larvae is on record as 50 µM.
Regarding `CC[C@@H](C(N)=O)N1CCCC1=O` [LEV, levetiracetam], in [1], the “effect on epileptiform (hyper-)locomotor activity” value is given as “failed to rescue”. Further, in data set [2] (single treatment at MTC), the “effect on epileptiform brain discharges” value was “failed to rescue”. Also, the “antiepileptic activity in the model (overall)” value (shortened to “antiepileptic activity”) in data set [3] is given as “failed to suppress”. For the same compound, the “maximum tolerated concentration (MTC)” value with WT zebrafish larvae stood at 10000 µM.
As for `NC(=O)N1c2ccccc2C=Cc2ccccc21` [CBZ, carbamazepine], the “effect on epileptiform (hyper-)locomotor activity” value in data set [1] is listed as “no inhibitory effects”. Also, the “effect on epileptiform brain discharges” value in [2] (single treatment at MTC) is recorded as “no inhibitory effects”. Moreover, the “maximum tolerated concentration (MTC)” value with WT zebrafish larvae amounted to 50 µM.
As for `O=C1NC(=O)C(c2ccccc2)(c2ccccc2)N1` [PHT, Phenytoin], in [1], the “effect on epileptiform (hyper-)locomotor activity” value is listed as “no inhibitory effects”. Also, the “effect on epileptiform brain discharges” value in data set [2] (single treatment at MTC) is “no inhibitory effects”. Further, the “maximum tolerated concentration (MTC)” value in the data set on WT zebrafish larvae is 100 µM.
Take `CCNC(C)Cc1cccc(C(F)(F)F)c1` (racemic) [(±)-FFA, (±)-Fenfluramine]: the “effect on locomotor activity” value in [1] ((±)-FFA single treatment at 3.13 µM, Fig. 3D) was “significant effect”. Besides, the “effect on epileptiform (hyper-)locomotor activity” value in data set [1] was “significantly counteracted”. In addition, the “effect on epileptiform brain discharges” value in data set [2] ((±)-FFA single treatment at 3.13 µM, Fig. 3E, F) is listed as “not on the epileptiform brain discharges”. For the same compound, in [2] (single treatment at MTC), the “effect on cumulative duration of epileptiform events” value (from here on “effect on cumulative duration”) is given as “decrease” and the “effect on frequency of epileptiform events” value (“effect on frequency” below) was “dramatically attenuated”. Besides, the “maximum tolerated concentration (MTC)” value in the data set with WT zebrafish larvae was 50 µM.
Regarding `CC1(C)O[C@@H]2[C@@H](CO[C@@]3(COS(N)(=O)=O)OC(C)(C)O[C@@H]23)O1` [TPM, topiramate], the “effect on epileptiform (hyper-)locomotor activity” value in [1] was “significantly counteracted”. Moreover, in [2] (single treatment at MTC), the “effect on cumulative duration” value is recorded as “decrease” and the “effect on frequency” value is on record as “dramatically attenuated”. Also, the “antiepileptic activity” value in data set [3] is on record as “pronounced therapeutic activity”. For the same compound, in the data set on WT zebrafish larvae, the “maximum tolerated concentration (MTC)” value is reported as 200 µM.
Consider `Nc1nnc(-c2cccc(Cl)c2Cl)c(N)n1` [LTG, lamotrigine], for which the “effect on epileptiform (hyper-)locomotor activity” value in [1] is recorded as “no inhibitory effects”. In addition, in data set [2] (single treatment at MTC), the “effect on epileptiform brain discharges” value is “no inhibitory effects”. Besides, the “maximum tolerated concentration (MTC)” value in the data set on WT zebrafish larvae is given as 100 µM.
In the case of `CCN[C@@H](C)Cc1cccc(C(F)(F)F)c1` [(+)-FFA], the results for the Ki (on dopamine (DA) uptake; in data set [4]) were over 20 µM and 1.29 ± 0.052 µM, respectively. Also, the “antiepileptic activity” value in data set [3] is “more consistent and concentration-dependent; also recorded: significant antiepileptic effects”. In the data set with 5-HT2C, the “Kact values for 5-HT2 receptor subtypes, 5-HT2C” value (“Kact values … 5-HT2C” for short) was 362 ± 64 nM. The “Kact values for 5-HT2 receptor subtypes, 5-HT2B” value (shortened to “Kact values … 5-HT2B”) in the data set with 5-HT2B is reported as 379 ± 70 nM. The EC50 in the data set with dopamine (DA) release was over 10 µM; in data set [5], 0.302 ± 0.02 µM.
`CCCC(CCC)C(=O)O` [VPA, Valproate]: in [1] (setting [8]), the “effect on locomotor activity” value was “limited and statistically non-significant effect; also recorded: not active”. For the same compound, in [1], the “effect on epileptiform (hyper-)locomotor activity” value is recorded as “complete rescue”. Besides, the “effect on epileptiform brain discharges” value in data set [2] (setting [8]) is “limited and statistically non-significant effect; also recorded: not active”. Further, in data set [2] (single treatment at MTC), the “effect on cumulative duration” value was “complete rescue” and the “effect on frequency” value is recorded as “complete rescue”. Also, in the data set on WT zebrafish larvae, the “maximum tolerated concentration (MTC)” value came out at 1000 µM.
On to `C[C@H](N)Cc1cccc(C(F)(F)F)c1` [(+)-norFFA], for which the Ki is 0.214 ± 0.009 µM at serotonin uptake, 2.31 ± 0.087 µM on dopamine (DA) uptake and 0.205 ± 0.019 µM in data set [4]. Further, in data set [6], the “total uptake in larval heads (amount of compound/head weight)” value is “somewhat similar uptake; also recorded: taken up less than the parent compound”. Further, in data set [3], the “antiepileptic activity” value is “more consistent and concentration-dependent; also recorded: significant antiepileptic effects”. For the same compound, the “Kact values … 5-HT2C” value in the data set on 5-HT2C was 13 ± 2.4 nM. The “Kact values … 5-HT2B” value with 5-HT2B is 18.4 ± 5.3 nM. For the same compound, the EC50 in the data set with dopamine (DA) release was 0.924 ± 0.112 µM; in [7], 0.0593 ± 0.0024 µM; in data set [5], 0.0727 ± 0.0054 µM. Moreover, in the data set with 5-HT2A, the “Kact values for 5-HT2 receptor subtypes, 5-HT2A” value is given as 630 ± 141 nM.
In the case of `CCN[C@H](C)Cc1cccc(C(F)(F)F)c1` [(−)-FFA], the Ki on dopamine (DA) uptake is over 20 µM; in data set [4] it was 7.19 ± 0.559 µM. The “antiepileptic activity” value in [3] is reported as “significant antiepileptic effects”. Also, in the data set with 5-HT2C, the “Kact values … 5-HT2C” value is recorded as 360 ± 91 nM. Moreover, in the data set with 5-HT2B, the “Kact values … 5-HT2B” value is 1248 ± 252 nM. Besides, the EC50 (in the data set on dopamine (DA) release; in data set [5]) was over 10 µM in each case.
